{"source": "ChEMBL document CHEMBL4342480", "about": "“Design of Dual Inhibitors of Soluble Epoxide Hydrolase and LTA4 Hydrolase” (ACS Med Chem Lett, 2020)", "key": {"[1]": {"biological_target": "T1, Bifunctional epoxide hydrolase 2 (Homo sapiens, UniProt P34913)", "T1 sequence (P34913 whole entry)": "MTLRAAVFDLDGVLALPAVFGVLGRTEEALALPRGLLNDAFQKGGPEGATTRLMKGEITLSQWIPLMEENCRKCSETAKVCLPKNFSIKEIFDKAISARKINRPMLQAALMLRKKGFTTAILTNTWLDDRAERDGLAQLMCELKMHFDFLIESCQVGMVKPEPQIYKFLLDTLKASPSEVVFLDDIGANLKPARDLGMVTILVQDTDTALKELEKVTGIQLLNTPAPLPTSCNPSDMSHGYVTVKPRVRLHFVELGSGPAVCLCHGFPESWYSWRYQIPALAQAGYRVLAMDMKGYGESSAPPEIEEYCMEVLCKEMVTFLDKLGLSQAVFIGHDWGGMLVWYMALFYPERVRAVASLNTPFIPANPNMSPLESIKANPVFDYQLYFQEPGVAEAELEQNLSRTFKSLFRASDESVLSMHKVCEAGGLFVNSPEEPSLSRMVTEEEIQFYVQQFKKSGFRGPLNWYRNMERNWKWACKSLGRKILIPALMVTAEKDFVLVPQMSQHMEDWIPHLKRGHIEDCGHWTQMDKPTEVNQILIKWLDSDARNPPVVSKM", "assay": "Inhibition of full length human soluble epoxide hydrolase (1 to 555 residues) expressed in Escherichia coli BL21(DE3) using non-fluorescent PHOME as substrate preincubated for 30 mins followed by substrate addition and measured for 30 mins by fluorescence based assay"}, "Macrophage [2]": {"system": "Macrophage", "assay": "Antiinflammatory activity in Escherichia coli O6:K2:H1-induced human M1 macrophage assessed as change in 14-HDHA level at 1 uM preincubated for 10 mins followed by Escherichia coli O6:K2:H1-stimulation and measured after 180 mins by UPLC-MS/MS analysis relative to control", "type": "functional"}, "Macrophage [3]": {"system": "Macrophage", "assay": "Antiinflammatory activity in Escherichia coli O6:K2:H1-induced human M1 macrophage assessed as change in […] level at 1 uM preincubated for 10 mins followed by Escherichia coli O6:K2:H1-stimulation and measured after 180 mins by UPLC-MS/MS analysis relative to control", "type": "functional"}, "Macrophage [4]": {"system": "Macrophage", "assay": "Antiinflammatory activity in Escherichia coli O6:K2:H1-induced human M1 macrophage assessed as change in total LTB4 level at 1 uM preincubated for 10 mins followed by Escherichia coli O6:K2:H1-stimulation and measured after 180 mins by UPLC-MS/MS analysis relative to control", "type": "functional"}, "Macrophage [5]": {"system": "Macrophage", "assay": "Antiinflammatory activity in Escherichia coli O6:K2:H1-induced human M1 macrophage assessed as change in 15-HETE level at 10 uM preincubated for 10 mins followed by Escherichia coli O6:K2:H1-stimulation and measured after 180 mins by UPLC-MS/MS analysis relative to control", "type": "functional"}, "Macrophage [6]": {"system": "Macrophage", "assay": "Antiinflammatory activity in Escherichia coli O6:K2:H1-induced human M1 macrophage assessed as change in 5.15-dlHETE level at 10 uM preincubated for 10 mins followed by Escherichia coli O6:K2:H1-stimulation and measured after 180 mins by UPLC-MS/MS analysis relative to control", "type": "functional"}, "Macrophage [7]": {"system": "Macrophage", "assay": "Antiinflammatory activity in Escherichia coli O6:K2:H1-induced human M1 macrophage assessed as change in PGD2 level at 10 uM preincubated for 10 mins followed by Escherichia coli O6:K2:H1-stimulation and measured after 180 mins by UPLC-MS/MS analysis relative to control", "type": "functional"}, "Macrophage [8]": {"system": "Macrophage", "assay": "Antiinflammatory activity in Escherichia coli O6:K2:H1-induced human M1 macrophage assessed as change in PGF2alpha level at 10 uM preincubated for 10 mins followed by Escherichia coli O6:K2:H1-stimulation and measured after 180 mins by UPLC-MS/MS analysis relative to control", "type": "functional"}, "Macrophage [9]": {"system": "Macrophage", "assay": "Antiinflammatory activity in Escherichia coli O6:K2:H1-induced human M1 macrophage assessed as change in total LTB4 level at 10 uM preincubated for 10 mins followed by Escherichia coli O6:K2:H1-stimulation and measured after 180 mins by UPLC-MS/MS analysis relative to control", "type": "functional"}, "Macrophage [10]": {"system": "Macrophage", "assay": "Antiinflammatory activity in Escherichia coli O6:K2:H1-induced human M2 macrophage assessed as change in 15-HEPE level at 1 uM preincubated for 10 mins followed by Escherichia coli O6:K2:H1-stimulation and measured after 180 mins by UPLC-MS/MS analysis relative to control", "type": "functional"}, "Macrophage [11]": {"system": "Macrophage", "assay": "Antiinflammatory activity in Escherichia coli O6:K2:H1-induced human M2 macrophage assessed as change in PGD2 level at 1 uM preincubated for 10 mins followed by Escherichia coli O6:K2:H1-stimulation and measured after 180 mins by UPLC-MS/MS analysis relative to control", "type": "functional"}, "Macrophage [12]": {"system": "Macrophage", "assay": "Antiinflammatory activity in Escherichia coli O6:K2:H1-induced human M2 macrophage assessed as change in PGF2alpha level at 1 uM preincubated for 10 mins followed by Escherichia coli O6:K2:H1-stimulation and measured after 180 mins by UPLC-MS/MS analysis relative to control", "type": "functional"}, "Macrophage [13]": {"system": "Macrophage", "assay": "Antiinflammatory activity in Escherichia coli O6:K2:H1-induced human M2 macrophage assessed as change in 5-HETE level at 1 uM preincubated for 10 mins followed by Escherichia coli O6:K2:H1-stimulation and measured after 180 mins by UPLC-MS/MS analysis relative to control", "type": "functional"}, "Macrophage [14]": {"system": "Macrophage", "assay": "Antiinflammatory activity in Escherichia coli O6:K2:H1-induced human M2 macrophage assessed as change in total LTB4 level at 1 uM preincubated for 10 mins followed by Escherichia coli O6:K2:H1-stimulation and measured after 180 mins by UPLC-MS/MS analysis relative to control", "type": "functional"}, "Macrophage [15]": {"system": "Macrophage", "assay": "Antiinflammatory activity in Escherichia coli O6:K2:H1-induced human M2 macrophage assessed as change in 17-HDHA level at 10 uM preincubated for 10 mins followed by Escherichia coli O6:K2:H1-stimulation and measured after 180 mins by UPLC-MS/MS analysis relative to control", "type": "functional"}, "Macrophage [16]": {"system": "Macrophage", "assay": "Antiinflammatory activity in Escherichia coli O6:K2:H1-induced human M2 macrophage assessed as change in 15-HETE level at 10 uM preincubated for 10 mins followed by Escherichia coli O6:K2:H1-stimulation and measured after 180 mins by UPLC-MS/MS analysis relative to control", "type": "functional"}, "Macrophage [17]": {"system": "Macrophage", "assay": "Antiinflammatory activity in Escherichia coli O6:K2:H1-induced human M2 macrophage assessed as change in 14-HDHA level at 10 uM preincubated for 10 mins followed by Escherichia coli O6:K2:H1-stimulation and measured after 180 mins by UPLC-MS/MS analysis relative to control", "type": "functional"}, "Macrophage [18]": {"system": "Macrophage", "assay": "Antiinflammatory activity in Escherichia coli O6:K2:H1-induced human M2 macrophage assessed as change in 4-HDHA level at 10 uM preincubated for 10 mins followed by Escherichia coli O6:K2:H1-stimulation and measured after 180 mins by UPLC-MS/MS analysis relative to control", "type": "functional"}, "Macrophage [19]": {"system": "Macrophage", "assay": "Antiinflammatory activity in Escherichia coli O6:K2:H1-induced human M2 macrophage assessed as change in 5.15-dlHETE level at 10 uM preincubated for 10 mins followed by Escherichia coli O6:K2:H1-stimulation and measured after 180 mins by UPLC-MS/MS analysis relative to control", "type": "functional"}, "Macrophage [20]": {"system": "Macrophage", "assay": "Antiinflammatory activity in Escherichia coli O6:K2:H1-induced human M2 macrophage assessed as change in 5-HEPE level at 10 uM preincubated for 10 mins followed by Escherichia coli O6:K2:H1-stimulation and measured after 180 mins by UPLC-MS/MS analysis relative to control", "type": "functional"}}}
{"molecule": "O=C(Cc1ccc(Oc2nc3ccccc3s2)cc1F)NCCc1ccc(F)cc1", "values": [{"measurement": "IC50", "setting": "[1]", "result": 0.3, "unit": "µM"}, {"measurement": "Activity", "setting": "Macrophage [2]", "result": 110, "unit": "%"}, {"measurement": "Activity", "setting": "Macrophage [3]", "result": 134, "unit": "%"}, {"measurement": "Activity", "setting": "Macrophage [4]", "result": 132, "unit": "%"}, {"measurement": "Activity", "setting": "Macrophage [5]", "result": 151, "unit": "%"}, {"measurement": "Activity", "setting": "Macrophage [6]", "result": 97, "unit": "%"}, {"measurement": "Activity", "setting": "Macrophage [7]", "result": 97, "unit": "%"}, {"measurement": "Activity", "setting": "Macrophage [8]", "result": 80, "unit": "%"}, {"measurement": "Activity", "setting": "Macrophage [9]", "result": 28, "unit": "%"}, {"measurement": "Activity", "setting": "Macrophage [10]", "result": 81, "unit": "%"}, {"measurement": "Activity", "setting": "Macrophage [11]", "result": 63, "unit": "%"}, {"measurement": "Activity", "setting": "Macrophage [12]", "result": 63, "unit": "%"}, {"measurement": "Activity", "setting": "Macrophage [13]", "result": 68, "unit": "%"}, {"measurement": "Activity", "setting": "Macrophage [14]", "result": 83, "unit": "%"}, {"measurement": "Activity", "setting": "Macrophage [15]", "result": 135, "unit": "%"}, {"measurement": "Activity", "setting": "Macrophage [16]", "result": 123, "unit": "%"}, {"measurement": "Activity", "setting": "Macrophage [17]", "result": 106, "unit": "%"}, {"measurement": "Activity", "setting": "Macrophage [18]", "result": 78, "unit": "%"}, {"measurement": "Activity", "setting": "Macrophage [19]", "result": 101, "unit": "%"}, {"measurement": "Activity", "setting": "Macrophage [20]", "result": 97, "unit": "%"}]}
